Laboratory results reported in ChEMBL document CHEMBL1201862, “PubChem BioAssay data set” (2004).
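Compound exposure: 48 hours, 5 concentrations, 96-well plates. GI50: concentration for 50% inhibition of growth.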 Calls of active or inactive are those of the source. No stated cut-off is given here; in the data, active = GI50 up to about 1.1 µM and inactive = higher.

What was measured:
Test in all cases: NCI tumour cell line growth inhibition, 48 h
786-0 = tested on: 786-0
A498 = tested on: A498
ACHN = tested on: ACHN
CAKI-1 = tested on: CAKI-1
CCRF-CEM = tested on: CCRF-CEM
COLO 205 = tested on: COLO 205
DLD-1 = tested on: DLD-1
DMS-273 = tested on: DMS-273
HCC 2998 = tested on: HCC 2998
HCT-116 = tested on: HCT-116
HL-60 = tested on: HL-60
HOP-62 = tested on: HOP-62
HOP-92 = tested on: HOP-92
IGROV-1 = tested on: IGROV-1
K562 = tested on: K562
LXFL 529 = tested on: LXFL 529
M14 = tested on: M14
M19-MEL = tested on: M19-MEL
MOLT-4 = tested on: MOLT-4
Malme-3M = tested on: Malme-3M
NCI-H226 = tested on: NCI-H226
NCI-H23 = tested on: NCI-H23
NCI-H460 = tested on: NCI-H460
NCI-H522 = tested on: NCI-H522
OVCAR-4 = tested on: OVCAR-4
RPMI-8226 = tested on: RPMI-8226
RXF 631 = tested on: RXF 631
SF-268 = tested on: SF-268
SF-539 = tested on: SF-539
SK-MEL-28 = tested on: SK-MEL-28
SK-MEL-2 = tested on: SK-MEL-2
SK-OV-3 = tested on: SK-OV-3
SN12C = tested on: SN12C
SNB-75 = tested on: SNB-75
SNB-78 = tested on: SNB-78
SR = tested on: SR
UACC-62 = tested on: UACC-62
A549 = tested on: A549
DMS-114 = tested on: DMS-114
EKVX = tested on: EKVX
HCT-15 = tested on: HCT-15
HT-29 = tested on: HT-29
KM-20L2 = tested on: KM-20L2
LOX IMVI = tested on: LOX IMVI
OVCAR-3 = tested on: OVCAR-3
OVCAR-5 = tested on: OVCAR-5
OVCAR-8 = tested on: OVCAR-8
RXF 393 = tested on: RXF 393
SF-295 = tested on: SF-295
SK-MEL-5 = tested on: SK-MEL-5
SNB-19 = tested on: SNB-19
SW-620 = tested on: SW-620
TK-10 = tested on: TK-10
U-251 = tested on: U-251
UACC-257 = tested on: UACC-257
UO-31 = tested on: UO-31
XF498 = tested on: XF498
KM12 = tested on: KM12

Question: COc1cc([C@@H]2Oc3cc4oc(-c5ccccc5)cc(=O)c4c(O)c3O[C@H]2OC)ccc1O was tested. Which GI50 (786-0) did it give?
Answer: 8.2 µM (inactive)

Question: And the GI50 (A498)?
Answer: 14.3 µM (inactive)

Question: What about the GI50 (ACHN) of the same compound?
Answer: 11 µM (inactive)

Question: What about the GI50 (CAKI-1) of the same compound?
Answer: 19.4 µM (inactive)

Question: What about the GI50 (CCRF-CEM) of the same compound?
Answer: 3.7 µM (inactive)

Question: And the GI50 (COLO 205)?
Answer: 20.5 µM (inactive)

Question: What about the GI50 (DLD-1) of the same compound?
Answer: 7.69 µM (inactive)

Question: What about the GI50 (DMS-273) of the same compound?
Answer: 4.03 µM (inactive)

Question: And the GI50 (HCC 2998)?
Answer: 13.2 µM (inactive)

Question: And the GI50 (HCT-116)?
Answer: 7.16 µM (inactive)

Question: What about the GI50 (HL-60) of the same compound?
Answer: 2.85 µM (inactive)

Question: What about the GI50 (HOP-62) of the same compound?
Answer: 13.2 µM (inactive)

Question: And the GI50 (HOP-92)?
Answer: 23.6 µM (inactive)

Question: And the GI50 (IGROV-1)?
Answer: 22.4 µM (inactive)

Question: And the GI50 (K562)?
Answer: 5.71 µM (inactive)

Question: What about the GI50 (LXFL 529) of the same compound?
Answer: 11.1 µM (inactive)

Question: What about the GI50 (M14) of the same compound?
Answer: 11 µM (inactive)

Question: And the GI50 (M19-MEL)?
Answer: 7.4 µM (inactive)

Question: What about the GI50 (MOLT-4) of the same compound?
Answer: 4.91 µM (inactive)

Question: What about the GI50 (Malme-3M) of the same compound?
Answer: 14.3 µM (inactive)

Question: And the GI50 (NCI-H226)?
Answer: 19.3 µM (inactive)

Question: And the GI50 (NCI-H23)?
Answer: 10.8 µM (inactive)

Question: And the GI50 (NCI-H460)?
Answer: 4.48 µM (inactive)

Question: What about the GI50 (NCI-H522) of the same compound?
Answer: 5.97 µM (inactive)

Question: What about the GI50 (OVCAR-4) of the same compound?
Answer: 14.6 µM (inactive)

Question: What about the GI50 (RPMI-8226) of the same compound?
Answer: 5.71 µM (inactive)

Question: What about the GI50 (RXF 631) of the same compound?
Answer: 17.8 µM (inactive)

Question: What about the GI50 (SF-268) of the same compound?
Answer: 6.03 µM (inactive)

Question: What about the GI50 (SF-539) of the same compound?
Answer: 15 µM (inactive)

Question: And the GI50 (SK-MEL-28)?
Answer: 4.69 µM (inactive)

Question: And the GI50 (SK-MEL-2)?
Answer: 14.8 µM (inactive)

Question: And the GI50 (SK-OV-3)?
Answer: 17.8 µM (inactive)

Question: What about the GI50 (SN12C) of the same compound?
Answer: 12.1 µM (inactive)

Question: And the GI50 (SNB-75)?
Answer: 12.4 µM (inactive)

Question: And the GI50 (SNB-78)?
Answer: 18.2 µM (inactive)

Question: And the GI50 (SR)?
Answer: 4.14 µM (inactive)

Question: And the GI50 (UACC-62)?
Answer: 15 µM (inactive)

Question: CCc1cccc(C)c1NC(=O)CC1C(=O)Nc2ccccc2S1(=O)=O (configuration not stated) was tested. Which GI50 (786-0) did it give?
Answer: 15.7 µM (inactive)

Question: And the GI50 (A498)?
Answer: 21 µM (inactive)

Question: What about the GI50 (A549) of the same compound?
Answer: 18.6 µM (inactive)

Question: What about the GI50 (ACHN) of the same compound?
Answer: 18.6 µM (inactive)

Question: And the GI50 (CAKI-1)?
Answer: 14.2 µM (inactive)

Question: What about the GI50 (CCRF-CEM) of the same compound?
Answer: 13.7 µM (inactive)

Question: What about the GI50 (DLD-1) of the same compound?
Answer: 15.8 µM (inactive)

Question: And the GI50 (DMS-114)?
Answer: 16.8 µM (inactive)

Question: And the GI50 (DMS-273)?
Answer: 7.01 µM (inactive)

Question: And the GI50 (EKVX)?
Answer: 15.5 µM (inactive)

Question: And the GI50 (HCC 2998)?
Answer: 16.8 µM (inactive)

Question: And the GI50 (HCT-116)?
Answer: 15.8 µM (inactive)

Question: What about the GI50 (HCT-15) of the same compound?
Answer: 12 µM

Question: And the GI50 (HL-60)?
Answer: 12.1 µM (inactive)

Question: And the GI50 (HOP-92)?
Answer: 12 µM (inactive)

Question: And the GI50 (HT-29)?
Answer: 19.7 µM (inactive)

Question: And the GI50 (IGROV-1)?
Answer: 13.4 µM (inactive)

Question: And the GI50 (K562)?
Answer: 2.92 µM (inactive)

Question: What about the GI50 (KM-20L2) of the same compound?
Answer: 18.5 µM (inactive)

Question: What about the GI50 (LOX IMVI) of the same compound?
Answer: 13.2 µM (inactive)

Question: And the GI50 (LXFL 529)?
Answer: 16.7 µM (inactive)

Question: What about the GI50 (M14) of the same compound?
Answer: 18.9 µM (inactive)

Question: And the GI50 (M19-MEL)?
Answer: 15.5 µM (inactive)

Question: And the GI50 (MOLT-4)?
Answer: 14.1 µM (inactive)

Question: And the GI50 (Malme-3M)?
Answer: 14.4 µM (inactive)

Question: What about the GI50 (NCI-H226) of the same compound?
Answer: 33 µM (inactive)

Question: And the GI50 (NCI-H23)?
Answer: 15.7 µM (inactive)

Question: And the GI50 (NCI-H460)?
Answer: 13.1 µM (inactive)

Question: What about the GI50 (NCI-H522) of the same compound?
Answer: 15.8 µM (inactive)

Question: And the GI50 (OVCAR-3)?
Answer: 15.2 µM (inactive)

Question: What about the GI50 (OVCAR-4) of the same compound?
Answer: 14.9 µM (inactive)

Question: And the GI50 (OVCAR-5)?
Answer: 23.6 µM (inactive)

Question: And the GI50 (OVCAR-8)?
Answer: 19.8 µM (inactive)

Question: What about the GI50 (RPMI-8226) of the same compound?
Answer: 13.9 µM (inactive)

Question: What about the GI50 (RXF 393) of the same compound?
Answer: 15.1 µM (inactive)

Question: And the GI50 (RXF 631)?
Answer: 14.2 µM (inactive)

Question: And the GI50 (SF-268)?
Answer: 20.8 µM (inactive)

Question: And the GI50 (SF-295)?
Answer: 26.2 µM (inactive)

Question: And the GI50 (SF-539)?
Answer: 11 µM (inactive)

Question: What about the GI50 (SK-MEL-28) of the same compound?
Answer: 18.5 µM (inactive)

Question: What about the GI50 (SK-MEL-2) of the same compound?
Answer: 21.1 µM (inactive)

Question: What about the GI50 (SK-MEL-5) of the same compound?
Answer: 13.7 µM (inactive)

Question: And the GI50 (SN12C)?
Answer: 20.8 µM (inactive)

Question: What about the GI50 (SNB-19) of the same compound?
Answer: 27.5 µM (inactive)

Question: And the GI50 (SNB-75)?
Answer: 16 µM (inactive)

Question: And the GI50 (SNB-78)?
Answer: 21.1 µM (inactive)

Question: And the GI50 (SR)?
Answer: 5.65 µM (inactive)

Question: And the GI50 (SW-620)?
Answer: 15.2 µM (inactive)

Question: And the GI50 (TK-10)?
Answer: 29.3 µM (inactive)

Question: And the GI50 (U-251)?
Answer: 16.9 µM (inactive)

Question: And the GI50 (UACC-257)?
Answer: 18.9 µM (inactive)

Question: What about the GI50 (UACC-62) of the same compound?
Answer: 15.8 µM (inactive)

Question: What about the GI50 (UO-31) of the same compound?
Answer: 13.5 µM (inactive)

Question: What about the GI50 (XF498) of the same compound?
Answer: 12.5 µM (inactive)

Question: What does the source list for OC1=CN=COc2ccccc21?
Answer: GI50 (786-0): > 100 µM (inactive); GI50 (A498): > 100 µM (inactive); GI50 (A549): > 100 µM (inactive); GI50 (ACHN): > 100 µM (inactive); GI50 (CCRF-CEM): > 100 µM (inactive); GI50 (COLO 205): > 100 µM (inactive); GI50 (DLD-1): > 100 µM (inactive); GI50 (DMS-114): > 100 µM (inactive); GI50 (DMS-273): > 100 µM (inactive); GI50 (EKVX): > 100 µM (inactive); GI50 (HCC 2998): > 100 µM (inactive); GI50 (HCT-116): > 100 µM (inactive); GI50 (HCT-15): > 100 µM; GI50 (HL-60): > 100 µM (inactive); GI50 (HOP-62): > 100 µM (inactive); GI50 (HOP-92): > 100 µM (inactive); GI50 (HT-29): > 100 µM (inactive); GI50 (IGROV-1): > 100 µM (inactive); GI50 (K562): > 100 µM (inactive); GI50 (KM-20L2): > 100 µM (inactive); GI50 (KM12): > 100 µM (inactive); GI50 (LOX IMVI): > 100 µM (inactive); GI50 (LXFL 529): > 100 µM (inactive); GI50 (M14): > 100 µM (inactive); GI50 (M19-MEL): > 100 µM (inactive); GI50 (MOLT-4): > 100 µM (inactive); GI50 (Malme-3M): > 100 µM (inactive); GI50 (NCI-H23): > 100 µM (inactive); GI50 (NCI-H460): > 100 µM (inactive); GI50 (OVCAR-3): > 100 µM (inactive); GI50 (OVCAR-4): > 100 µM (inactive); GI50 (OVCAR-8): > 100 µM (inactive); GI50 (RPMI-8226): > 100 µM (inactive); GI50 (RXF 393): > 100 µM (inactive); GI50 (RXF 631): > 100 µM (inactive); GI50 (SF-268): > 100 µM (inactive); GI50 (SF-295): > 100 µM (inactive); GI50 (SF-539): > 100 µM (inactive); GI50 (SK-MEL-28): > 100 µM (inactive); GI50 (SK-MEL-2): > 100 µM (inactive); GI50 (SK-OV-3): 50.6 µM (inactive); GI50 (SN12C): > 100 µM (inactive); GI50 (SNB-19): > 100 µM (inactive); GI50 (SNB-75): 32.3 µM (inactive); GI50 (SNB-78): > 100 µM (inactive); GI50 (SW-620): > 100 µM (inactive); GI50 (TK-10): > 100 µM (inactive); GI50 (U-251): > 100 µM (inactive); GI50 (UACC-257): > 100 µM (inactive); GI50 (UACC-62): > 100 µM (inactive); GI50 (UO-31): 34.7 µM (inactive)
